Results taken from patent US20240140895A1, “NOVEL AROMATIC MOLECULES” (XENIOPRO GmbH, priority 2018, published 2024).

Tested on: Notch signaling (human Notch1 receptor, hNotch1ΔE)
Assay: Notch reporter assay (dual luciferase, HeLa cells transfected with hNotch1ΔE)
Format: cell-based
Conditions: 10 μM
From the text: The activation level of Notch signaling can be quantified in vitro reliably by measuring the expression levels of Notch specific target genes. This can be accomplished by the quantification of corresponding mRNA or protein of a particular Notch target gene. Alternatively, cells can be genetically modified to carry a luciferase gene as an artificial Notch target gene, which is expressed in dependence of Notch activity. In this setting, Notch signaling levels can be quantified by measuring the luciferase-derived bioluminescence values.
An according Notch-reporter assay, i.e. a luciferase-based luminescence readout, was used here to quantify the ability of the claimed compounds to augment Notch signaling in a cellular system. […] After 24 hours of transfection, the transfected cells were carefully detached from the dish using 0.5 mM EDTA in PBS and seeded into 96-well plates suitable for luminescence readouts (CORNING, #3610) at 10,000 cells per well. […] Directly after the lysis, first the Firefly and then the Renilla luciferase values were measured consecutively from the same well with a luminescence reader immediately after applying 15 μL per well each of the corresponding enzyme substrates needed to create the luminescence signals (Promega, Dual-Luciferase® Reporter Assay System, #E1910). […]

| Structure (SMILES) | Activity Range: weighted arithmetic mean (AVEw) of double-normalized Notch-reporter luminescence, relative to DMSO basis level 1.0 |
| --- | --- |
| C[C@H](NC(=O)Cc1cc(F)cc(F)c1)C(=O)N[C@H](C(=O)OC(C)(C)C)c1ccccc1 [DAPT] | 0.1 ± 0.0 |
| O=Cc1ccc(Oc2ccc(C3CCCCC3)cc2)cc1 [XPA-0020] | 2.0 ≤ AVEw |
